pIC50: −log10 of the molar value. Activity calls are given as the source filed them. No cut-off for these calls is given here.
Assays:
[1] = test system: Pseudomonas aeruginosa; assay: Inhibition of Pseudomonas aeruginosa His-6-tagged PqsD expressed in Escherichia coli BL21 (lambdaDE3) using anthraniloyl-CoA/beta-ketodecanoic acid at 50 uM as substrate by LC-MS/MS analysis
[2] = test system: Escherichia coli; assay: Inhibition of Escherichia coli RNAP assessed as incorporation of [5,6-3H]UTP at 200 uM preincubated for 10 mins followed by DNA template and ATP, CTP, GTP, UTP, [5,6-3H]UTP addition measured after 10 mins by scintillation counting analysis
[3] = Inhibition of Pseudomonas aeruginosa His-6-tagged PqsD expressed in Escherichia coli BL21 (lambdaDE3) using anthraniloyl-CoA/beta-ketodecanoic acid as substrate by LC-MS/MS analysis; settings: for pIC50: read-out: IC50
[4] = Inhibition of Escherichia coli RNAP assessed as incorporation of [5,6-3H]UTP preincubated for 10 mins followed by DNA template and ATP, CTP, GTP, UTP, [5,6-3H]UTP addition measured after 10 mins by scintillation counting analysis; settings: for pIC50: read-out: IC50
[5] = test system: Escherichia coli; assay: Inhibition of Escherichia coli RNAP assessed as incorporation of [5,6-3H]UTP at 50 uM preincubated for 10 mins followed by DNA template and ATP, CTP, GTP, UTP, [5,6-3H]UTP addition measured after 10 mins by scintillation counting analysis
[6] = test system: Escherichia coli; assay: Inhibition of Escherichia coli RNAP assessed as incorporation of [5,6-3H]UTP at 100 uM preincubated for 10 mins followed by DNA template and ATP, CTP, GTP, UTP, [5,6-3H]UTP addition measured after 10 mins by scintillation counting analysis
[7] = Selectivity index, ratio of IC50 for Escherichia coli RNAP to IC50 for Pseudomonas aeruginosa PqsD
[8] = test system: Pseudomonas aeruginosa; assay: Inhibition of Pseudomonas aeruginosa His-6-tagged PqsD expressed in Escherichia coli BL21 (lambdaDE3) using anthraniloyl-CoA/beta-ketodecanoic acid at 25 uM as substrate by LC-MS/MS analysis

Row | Compound | inhibition [2] | pIC50 [3] | also measured
1 | O=C(Nc1cccc(F)c1C(=O)O)c1ccc(-c2ccccc2)cc1 | – | – | inhibition [1]: 21%
2 | CCN(CC)S(=O)(=O)c1cccc(C(=O)Nc2cc(F)ccc2C(=O)O)c1 | inactive | – | –
3 | NC(=O)c1cc(Br)ccc1NC(=O)c1ccc(-c2ccccc2)cc1 | – | – | IC50 [4]: Not Active; IC50 [3]: Not Active
4 | COc1ccc(-c2cc(NC(=O)c3ccc(-c4ccccc4)cc3)c(C(=O)O)s2)cc1 | – | – | inhibition [1]: 45%; pIC50 [4]: 5.05
5 | N#Cc1cc(Br)ccc1NC(=O)c1ccc(-c2ccccc2)cc1 | – | – | IC50 [4]: Not Active; IC50 [3]: Not Active
6 | CCN(CC)S(=O)(=O)c1cccc(C(=O)Nc2ccc(-c3ccc(C(=O)O)cc3)cc2C(=O)O)c1 | – | – | inhibition [5]: 23%
7 | CCN(CC)S(=O)(=O)c1cccc(C(=O)Nc2cccc(OC)c2C(=O)O)c1 | inactive | – | –
8 | CCN(CC)S(=O)(=O)c1cccc(C(=O)Nc2ccc(C)cc2C(=O)O)c1 | inactive | – | –
9 | O=C(Nc1cc(-c2ccc(Cl)cc2)sc1C(=O)O)c1ccc(-c2ccccc2)cc1 | – | – | inhibition [1]: 35%; pIC50 [4]: 4.89
10 | O=C(Nc1cscc1C(=O)O)c1ccc(-c2ccccc2)cc1 | 33% | 4.71 | –
11 | CCN(CC)S(=O)(=O)c1cccc(C(=O)Nc2cccc(Cl)c2C(=O)O)c1 | inactive | – | –
12 | Cc1ccc(NC(=O)c2ccc(-c3ccccc3)cc2)c(C(=O)O)c1 | – | – | inhibition [1]: 42%
13 | CCN(CC)S(=O)(=O)c1cccc(C(=O)Nc2ccccc2C(=O)O)c1 | inactive | – | –
14 | CCN(CC)S(=O)(=O)c1cccc(C(=O)Nc2cc(Cl)ccc2C(=O)O)c1 | – | – | inhibition [6]: inactive
15 | COc1cc(NC(=O)c2cccc(Oc3ccccc3)c2)c(C(=O)O)cc1OC | – | – | inhibition [1]: 27%
16 | O=C(Nc1ccccc1C(=O)O)c1ccccc1 | – | – | IC50 [3]: Not Active
17 | COc1cccc(NC(=O)c2ccc(-c3ccccc3)cc2)c1C(=O)O | – | – | IC50 [3]: Not Active
18 | O=C(Nc1ccc(Cl)cc1C(=O)O)c1ccc(-c2ccccc2)cc1 | – | 5.42 | –
19 | COc1ccc(NC(=O)c2ccc(-c3ccccc3)cc2)c(C(=O)O)c1 | – | – | inhibition [1]: 46%
20 | CCN(CC)C(=O)c1cccc(C(=O)Nc2ccccc2C(=O)O)c1 | inactive | – | –
21 | NS(=O)(=O)c1cccc(C(=O)Nc2ccccc2C(=O)O)c1 | inactive | – | –
22 | O=C(O)c1ccc(Br)c(NC(=O)c2ccc(-c3ccccc3)cc2)c1 | 25% | – | IC50 [3]: Not Active
23 | CCN(CC)S(=O)(=O)c1cc(C(=O)Nc2ccccc2C(=O)O)ccc1Br | inactive | – | –
24 | COc1cc(NC(=O)c2ccc(-c3ccccc3)cc2)c(C(=O)O)cc1OC | – | – | inhibition [1]: 27%
25 | CCN(CC)S(=O)(=O)c1cc(C(=O)Nc2ccc(F)cc2C(=O)O)ccc1Br | – | – | inhibition [6]: inactive

Row | Compound | inhibition [2] | pIC50 [3] | also measured
26 | CN(C)S(=O)(=O)c1cccc(C(=O)Nc2ccccc2C(=O)O)c1 | inactive | – | –
27 | CCN(CC)S(=O)(=O)c1cccc(C(=O)Nc2ccc(C(F)(F)F)cc2C(=O)O)c1 | – | – | inhibition [5]: inactive
28 | CCN(CC)S(=O)(=O)c1cccc(C(=O)Nc2ccc(Br)cc2C(=O)O)c1 | – | – | inhibition [5]: inactive
29 | O=C(Nc1ccc(Br)cc1C(=O)O)c1ccc(-c2ccccc2)cc1 | – | 5.49 | –
30 | O=C(O)c1cccc(NC(=O)c2ccc(-c3ccccc3)cc2)c1 | – | – | inhibition [8]: 25%; inhibition [6]: 31%
31 | O=C(Nc1ccccc1C(=O)O)c1cccc(Oc2ccccc2)c1 | – | – | inhibition [1]: 37%
32 | O=C(Nc1cc(-c2ccccc2)sc1C(=O)O)c1ccc(-c2ccccc2)cc1 | – | 5.01 | pIC50 [4]: 5.00
33 | O=C(Nc1ccc(C(F)(F)F)cc1C(=O)O)c1ccc(-c2ccccc2)cc1 | – | 5.47 | –
34 | CCCN(CCC)S(=O)(=O)c1cccc(C(=O)Nc2ccccc2C(=O)O)c1 | inactive | – | –
35 | O=C(Nc1cc(C(F)(F)F)ccc1C(=O)O)c1ccc(-c2ccccc2)cc1 | – | 5.31 | –
36 | CCN(CC)S(=O)(=O)c1cc(C(=O)Nc2ccc(Br)cc2C(=O)O)ccc1Br | – | – | inhibition [5]: inactive
37 | O=C(Nc1sccc1C(=O)O)c1ccc(-c2ccccc2)cc1 | – | 4.80 | pIC50 [4]: 3.79
38 | CCN(CC)S(=O)(=O)c1cccc(C(=O)Nc2ccc([N+](=O)[O-])cc2C(=O)O)c1 | – | – | inhibition [6]: 30%
39 | COc1ccc(C(=O)O)c(NC(=O)c2ccc(-c3ccccc3)cc2)c1 | – | – | inhibition [8]: 43%
40 | COC(=O)c1cc(Br)ccc1NC(=O)c1ccc(-c2ccccc2)cc1 | – | – | IC50 [4]: Not Active; IC50 [3]: Not Active
41 | O=C(Nc1sc(-c2ccccc2)cc1C(=O)O)c1ccc(-c2ccccc2)cc1 | – | – | inhibition [1]: 28%; inhibition [5]: 33%
42 | O=C(Nc1ccccc1C(=O)O)c1cccc(S(=O)(=O)N2CCCC2)c1 | inactive | – | –
43 | CCN(CC)S(=O)(=O)c1cccc(C(=O)Nc2ccc(-c3ccccc3)cc2C(=O)O)c1 | – | – | inhibition [6]: inactive
44 | O=C(Nc1cc(Cl)ccc1C(=O)O)c1ccc(-c2ccccc2)cc1 | – | 5.06 | –
45 | O=C(Nc1ccc(F)cc1C(=O)O)c1cccc(Oc2ccccc2)c1 | – | – | inhibition [1]: 57%
46 | CCN(CC)S(=O)(=O)c1cccc(C(=O)Nc2ccc(-c3ccc(C(N)=O)cc3)cc2C(=O)O)c1 | – | – | pIC50 [4]: 4.11
47 | O=C(Nc1cccc(Cl)c1C(=O)O)c1ccc(-c2ccccc2)cc1 | – | – | inhibition [1]: 20%
48 | O=C(Nc1cc(F)ccc1C(=O)O)c1ccc(-c2ccccc2)c(Oc2ccccc2)c1 | – | 5.22 | –
49 | CCN(CC)S(=O)(=O)c1cccc(C(=O)Nc2ccc(F)cc2C(=O)O)c1 | – | – | inhibition [6]: inactive
50 | O=C(Nc1ccccc1C(=O)O)c1ccc(-c2ccccc2)cc1 | – | – | inhibition [1]: 55%

Further lines, with some results ahead:

Row | inhibition [2] | pIC50 [3] | Compound | also measured
51 | – | 5.18 | O=C(Nc1ccccc1C(=O)O)c1ccc(-c2ccccc2)c(Oc2ccccc2)c1 | –
52 | – | 5.21 | O=C(Nc1c(Cl)cccc1C(=O)O)c1ccc(-c2ccccc2)cc1 | –
53 | inactive | – | O=C(Nc1ccccc1C(=O)O)c1cccc(S(=O)(=O)N2CCCCCC2)c1 | –
54 | 28% | 5.28 | O=C(Nc1ccsc1C(=O)O)c1ccc(-c2ccccc2)cc1 | –
55 | inactive | – | CCN(CC)S(=O)(=O)c1cccc(C(=O)Nc2cccc(O)c2C(=O)O)c1 | –
56 | – | 5.89 | O=C(O)c1cc(Br)ccc1NS(=O)(=O)c1ccc(-c2ccccc2)cc1 | pIC50 [4]: 4.46
57 | inactive | – | O=C(Nc1ccccc1C(=O)O)c1cccc(S(=O)(=O)N2CCOCC2)c1 | –
58 | – | 5.36 | O=C(Nc1ccc(Br)cc1C(=O)O)c1cccc(Oc2ccccc2)c1 | –
59 | inactive | – | CCN(CC)S(=O)(=O)c1ccc(C(=O)Nc2ccccc2C(=O)O)cc1 | –
60 | – | 5.11 | O=C(Nc1ccc(-c2ccccc2)cc1C(=O)O)c1cccc(Oc2ccccc2)c1 | –
61 | – | 5.40 | O=C(Nc1ccc(OC(F)(F)F)cc1C(=O)O)c1ccc(-c2ccccc2)cc1 | –
62 | – | 5.48 | O=C(Nc1cc([N+](=O)[O-])ccc1C(=O)O)c1ccc(-c2ccccc2)cc1 | –
63 | 45% | – | CCN(CC)S(=O)(=O)c1cccc(C(=O)Nc2ccc(-c3cccc(C(N)=O)c3)cc2C(=O)O)c1 | –
64 | – | 5.89 | O=C(Nc1cccc(O)c1C(=O)O)c1ccc(-c2ccccc2)cc1 | pIC50 [4]: 4.13; Ratio IC50 [7]: 50
65 | – | 4.82 | O=C(Nc1ccc(F)cc1C(=O)O)c1ccc(-c2ccccc2)cc1 | –
66 | inactive | – | CCN(CC)S(=O)(=O)c1cccc(C(=O)Nc2cccc(F)c2C(=O)O)c1 | –
67 | – | 5.18 | O=C(Nc1cc(-c2ccccc2)ccc1C(=O)O)c1cccc(Oc2ccccc2)c1 | –
68 | – | 4.74 | O=C(Nc1cc(F)ccc1C(=O)O)c1ccc(-c2ccccc2)cc1 | –

Row | inhibition [2] | pIC50 [3] | Compound | also measured
69 | – | 5.30 | O=C(Nc1ccc(Br)cc1C(=O)O)c1cccc(Cc2ccccc2)c1 | –
70 | 28% | – | CCN(CC)S(=O)(=O)c1ccc(C(=O)Nc2ccc(Br)cc2C(=O)O)cc1 | –
71 | inactive | – | CCN(CC)S(=O)(=O)c1cccc(C(=O)Nc2cc([N+](=O)[O-])ccc2C(=O)O)c1 | –
72 | inactive | – | CCN(CC)S(=O)(=O)c1cccc(C(=O)Nc2ccc(C#N)cc2C(=O)O)c1 | –
73 | – | 5.49 | O=C(Nc1cc(Br)ccc1C(=O)O)c1ccc(-c2ccccc2)cc1 | –
74 | – | 5.30 | O=C(Nc1cc(Cl)ccc1C(=O)O)c1ccc(-c2ccccc2)c(Oc2ccccc2)c1 | –
75 | – | 5.24 | O=C(Nc1cc(Cl)ccc1C(=O)O)c1cccc(Oc2ccccc2)c1 | –
76 | 29% | – | CCN(Cc1ccccc1)S(=O)(=O)c1cccc(C(=O)Nc2ccccc2C(=O)O)c1 | –
77 | 24% | – | CCN(CC)S(=O)(=O)c1cccc(C(=O)Nc2ccc(-c3cccc(C(=O)O)c3)cc2C(=O)O)c1 | –
78 | – | 4.49 | O=C(O)c1cc(Br)cc(NC(=O)c2ccc(-c3ccccc3)cc2)c1 | pIC50 [4]: 3.96
79 | inactive | – | CCN(CC)C(=O)c1cccc(C(=O)Nc2ccc(Br)cc2C(=O)O)c1 | –
80 | inactive | – | CCN(CC)S(=O)(=O)c1cc(C(=O)Nc2ccccc2C(=O)O)ccc1C | –
81 | – | 5.07 | N#Cc1ccc(NC(=O)c2ccc(-c3ccccc3)cc2)c(C(=O)O)c1 | –
82 | inactive | – | CCc1ccc(C(=O)Nc2ccccc2C(=O)O)cc1S(=O)(=O)N(CC)CC | –
83 | inactive | – | O=C(Nc1ccccc1C(=O)O)c1cccc(S(=O)(=O)N2CCCCC2)c1 | –
84 | – | 5.29 | O=C(Nc1cc(Br)ccc1C(=O)O)c1cccc(Oc2ccccc2)c1 | –
85 | – | 5.38 | O=C(Nc1ccc(O)cc1C(=O)O)c1ccc(-c2ccccc2)cc1 | –
